From patent US9278956B1, “Small-molecule inhibitors of Rac1 in metastatic cancer cells” (University of Puerto Rico, priority 2012, dated 2016)
Read-outs that look alike come from different tables or passages of the source.

Assays:
[1] = test system: Rac; assay: Rac.GTP pull-down (GST-PAK1 p21 binding domain), MDA-MB-435 cells; format: cell-based, human
Method: (§1) Rho, Rac, and Cdc42 activities were analyzed from MDA-MB-435 cell lysates by pulldown assays using GST-Rho binding domain from Rhotekin to isolate active GTP bound Rho, and a GST-p21 binding domain of PAK1 to isolate active Rac.GTP or Cdc42.GTP. Active and total Rho GTPases were identified by western blotting with specific antibodies: anti RhoA, anti Rac (1,2,3), anti Rac3, or anti Cdc42 (Cell Signaling Technology, Inc., Danvers, Mass.).
(§2) Cell lysates or pulldowns were western blotted using routine laboratory procedures. Anti-RhoA, -Rac (1,2,3), -Cdc42, -p-PAK^Thr423 antibodies were from Cell Signaling Technology, Inc., Danvers, Mass. Anti Vav2 was from Zymed, San Francisco, Calif.; and Rac3, PAK1, Tiam-1, and Trio antibodies were from Santa Cruz Biotechnology, Inc., Santa Cruz, Calif.

[2] = test system: Rac; assay: Rac.GTP pull-down (GST-PAK1 p21 binding domain), MDA-MB-231 cells; format: cell-based, human; conditions: read-out: IC50 for inhibition of Rac activity
Method: as §1, §2

[3] = target: T1, Rac3 (Homo sapiens, UniProt P60763); assay: Rac3-GTP pull-down, MDA-MB-435 cells; format: cell-based
T1 construct: endogenous in cells; host or cells: MDA-MB-435
Method: as §1, §2

[4] = target: T2, Cdc42 (Homo sapiens, UniProt P60953); assay: Cdc42-GTP pull-down, MDA-MB-435 cells; format: cell-based
T2 construct: endogenous in cells; host or cells: MDA-MB-435
Method: as §1, §2

[5] = target: T3, RhoA (Homo sapiens, UniProt P61586); assay: RhoA-GTP pull-down (GST-Rhotekin Rho binding domain), MDA-MB-435 cells; format: cell-based; conditions: 2, 4, 5, or 10 μM
T3 construct: endogenous in cells; host or cells: MDA-MB-435
Method: as §1, §2

[6] = target: T4, Vav2 association with Rac1(G15A) (Homo sapiens, UniProt P63000, G15A); assay: Precipitation of activated GEFs with GST-Rac1(G15A) from MDA-MB-435 lysates (Vav2); format: binding; conditions: 1 h, p<0.005, read-out: association of Vav2 with Rac1(G15A), compared to controls
T4 construct: purchased Cell Biolabs, San Diego, Calif; host or cells: Vav2: endogenous, MDA-MB-435 lysate
Method: MDA-MB-435 cells in culture media were lysed in 1% Triton X-100, 20 mM HEPES, pH 7.4, 150 mM NaCl, 5 mM MgCl2, and protease inhibitors and processed. Equal amounts of protein from clarified lysates were incubated for 1 h at 4° C. with glutathione agarose beads conjugated to GST-Rac1(G15A) nucleotide free mutant (Cell Biolabs, San Diego, Calif.), that were pre-incubated (for 1 h) with vehicle or 2 or […] EHop-016. The beads were washed and the lysates and pulldowns immunoblotted for Tiam-1, Trio, or Vav2.

[7] = test system: MDA-MB-231 cells; assay: Lamellipodia formation by fluorescence microscopy (Rhodamine phalloidin), MDA-MB-231; format: cell-based, human; conditions: 4 μM, 24 h, control close to 100%
Method: Metastatic human cancer cell lines MDA-MB-435 and MDA-MB-231 (in DMEM with 10% FBS) were treated with vehicle (0.1% DMSO) or EHop-016 at 2 and 4 μM for 24 hrs. Cells were fixed, permeabilized, and stained with Rhodamine phalloidin to visualize F-actin.

[8] = test system: MDA-MB-435 cells; assay: Lamellipodia formation by fluorescence microscopy (Rhodamine phalloidin), MDA-MB-435; format: cell-based, human
[9] = test system: PAK1; assay: PAK1 activity by Western blot for phospho-Thr 423, MDA-MB-435 cells; format: cell-based, human; conditions: both 2 and 4 μM, 24 h
Method: as §2
The effect of EHop-016 on Rac action was also determined by analyzing the activity of the Rac downstream effector PAK that regulates Rac-mediated lamellipodia extension and directed cell migration. […] Since Rac/PAK signaling regulates directed cell migration, the effect of EHop-016 at 0-5 μM was determined on migration of MDA-MB-435 cells by using a Transwell assay. As shown in FIG. 6(B), treatment with 2 and 5 μM EHop-016 reduced directed cell migration by ˜60% at concentrations that reduced Rac activity by ˜80% as shown in FIG. 2 and FIGS. 4A-4E. It is possible that Rac may not be the only regulator of cell migration in this highly invasive cancer cell line.

[10] = test system: MDA-MB-435 cells; assay: Transwell cell migration assay; format: cell-based, human; conditions: 2 and 5 μM, 24 h treatment, 4 h migration
Method: Quiescent MDA-MB-435 cells were treated with vehicle or varying concentrations of EHop-016 (0-5 μM) for 24 hrs. Exactly 2×10^5 cells were placed on the top well of Transwell chambers (Corning Life Sciences, Lowell, Mass.) with media containing 10% FBS in the bottom well. The number of cells that migrated to the underside of the membrane following 4 h incubation was quantified for each treatment.

[11] = test system: MDA-MB-435 cells; assay: MTT cell viability assay, MDA-MB-435; format: cell-based, human
Method: (§3) […] Cell viability was measured using the MTT [3-(4,5-dimethylthiazol-2-yl)-2,5-diphenyl tetrazolium bromide] cell survival and proliferation kit (Millipore, Inc., Billerica, Mass.) according to manufacturer's instructions.

[12] = test system: MCF-10A cells; assay: MTT cell viability assay, MCF-10A mammary epithelial cells; format: cell-based
Method: as §3

[13] = test system: MDA-MB-231 cells; assay: MTT cell viability assay, MDA-MB-231; format: cell-based, human
[14] = Body weight and gross toxicity in athymic nude mice; format: in vivo; conditions: oral and intraperitoneal, 1 mg/kg once a week for 9 weeks; preliminary
[15] = target: Rac1 (Homo sapiens, UniProt P63000); assay: G-LISA Rac1 activation assay on MDA-MB-435 cell lysates; design: selectivity among Rho GTPases: dose or concentration left out as unconfirmed
[16] = target: Tiam-1 DH/PH domain / Rac1(G15A) (Homo sapiens, UniProt P63000, G15A); assay: Interaction of purified Tiam-1 DH/PH domain with Rac1(G15A) beads
[17] = target: Trio (Homo sapiens, UniProt O75962); conditions: cited from earlier work
[18] = target: Rac (Homo sapiens, UniProt P63000); conditions: cited from earlier work
[19] = test system: Rac; conditions: fibroblasts; read-out: IC50 as Rac inhibitor in fibroblasts; cited from earlier work
[20] = test system: Rac; conditions: cited from earlier work

T2 sequence (P60953 whole entry): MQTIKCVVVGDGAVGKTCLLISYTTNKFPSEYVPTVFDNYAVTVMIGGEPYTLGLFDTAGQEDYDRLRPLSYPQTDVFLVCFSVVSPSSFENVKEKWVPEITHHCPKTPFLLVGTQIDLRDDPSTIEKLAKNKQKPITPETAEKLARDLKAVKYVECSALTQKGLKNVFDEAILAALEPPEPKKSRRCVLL
T3 sequence (P61586 whole entry, the tested form may be a part): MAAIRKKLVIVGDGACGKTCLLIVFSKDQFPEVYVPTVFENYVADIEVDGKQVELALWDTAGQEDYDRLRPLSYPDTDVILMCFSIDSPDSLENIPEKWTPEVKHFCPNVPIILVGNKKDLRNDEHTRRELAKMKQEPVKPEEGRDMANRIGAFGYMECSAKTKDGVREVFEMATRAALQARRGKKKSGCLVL

Q: Which “inhibition of Rac activity” value ([1]; 2 μM) does the source give for `CCn1c2ccccc2c2cc(Nc3ccnc(NCCCN4CCOCC4)n3)ccc21` [EHop-016, N^4-(9-Ethyl-9H-carbazol-3-yl)-N2-(3-morpholin-4-yl-propyl)-pyrimidine-2,4-diamine] here?
A: The value was 79%.

Q: And the “inhibition of Rac activity” value ([1]; 4 μM)?
A: Its value is 93%.

Q: And the IC50 [2]?
A: The IC50 was ~3000 nM.

Q: What about the inhibition at 1 µM [3] of the same compound?
A: The inhibition at 1 µM was 58%.

Q: What about the “effect on Cdc42 activity” value ([4]; 2 or 4 μM) of the same compound?
A: The value was “did not affect”.

Q: What about the inhibition at 5 µM ([4]; MDA-MB-435, 5 μM) of the same compound?
A: Its inhibition at 5 µM is 28%.

Q: What about the inhibition at 10 µM ([4]; MDA-MB-435, 10 μM) of the same compound?
A: The inhibition at 10 µM was 74%.

Q: And the “increase of RhoA activity” value [5]?
A: Its value is ~1.3 fold.

Q: What about the remaining activity at 4 µM [6] of the same compound?
A: Its remaining activity at 4 µM is ~50%.

Q: What about the “cells that extended lamellipodia” value [7] of the same compound?
A: The value was ~30%.

Q: What about the “effect on extension of filopodia” value ([8]; 2 and 4 μM) of the same compound?
A: Its value is “did not affect”.

Q: And the “cells that extended lamellipodia” value ([8]; both 2 and 4 μM, 24 h, MDA-MB-435, control close to 100%)?
A: Its value is ~30%.

Q: And the “effect on PAK activity (phospho-Thr 423 PAK1)” value [9]?
A: The value was “dramatically inhibits”.

Q: And the “reduction of directed cell migration” value [10]?
A: Its value is ~60%.

Q: And the “decrease in cell number compared to controls” value ([11]; 5 μM, MDA-MB-435, only a trend)?
A: The value was ~30%.

Q: What about the cell viability remaining ([11]; 10 μM, MDA-MB-435) of the same compound?
A: Its cell viability remaining is ~50%.

Q: And the “effect on cell viability” value ([11]; 25 μM, MDA-MB-435)?
A: Its value is “significant reduction”.

Q: What about the “effect on cell viability” value ([11]; 1 or 2 μM, MDA-MB-435) of the same compound?
A: The value was “did not significantly affect”.

Q: What about the “effect on cell viability” value ([11]; low concentrations (<5 μM)) of the same compound?
A: The value was “does not affect”.

Q: What about the “decrease in cell number compared to controls” value ([12]; 5 μM, MCF-10A, only a trend) of the same compound?
A: Its value is ~30%.

Q: What about the cell viability remaining ([12]; 10 μM, MCF-10A) of the same compound?
A: The cell viability remaining was ~50%.

Q: What about the “effect on cell viability” value ([12]; 25 μM, MCF-10A) of the same compound?
A: Its value is “significant reduction”.

Q: And the “effect on cell viability” value ([12]; 1 or 2 μM, MCF10A)?
A: Its value is “did not significantly affect”.

Q: What about the “effect on cell viability” value ([13]; 25 μM) of the same compound?
A: Its value is “significant reduction”.

Q: What about the “effect on cell viability” value ([13]; 1 or 2 μM) of the same compound?
A: Its value is “did not significantly affect”.

Q: And the “body weight and gross toxicity” value [14]?
A: Its value is “no change in body weight or gross indications of toxicity”.

Q: What about the “potency relative to other currently available Rac inhibitors” value [15] of the same compound?
A: Its value is 10-50 times.

Q: And the “selectivity among Rho GTPases” value [15]?
A: The value was “specific for Rac1 and Rac3”.

Q: And the “reduction of Rac activity” value ([15]; 2 and 5 μM)?
A: The value was ~80%.

Q: What about the “potency relative to NSC23766” value ([15]; MDA-MB-435 cells) of the same compound?
A: Its value is “approximately 100 times”.

Q: What about the IC50 ([15]; read-out: IC50 for inhibition of Rac1 activity, MDA-MB-435 cells, 24 h treatment) of the same compound?
A: The IC50 was 1100 nM.

Q: And the “concentration at which Tiam-1 DH/PH-Rac1(G15A) interaction is inhibited” value [16]?
A: Its value is 40 µM.

Q: What about the “effect on interaction of Tiam-1 DH/PH domain with Rac1(G15A)” value ([16]; 5 μM) of the same compound?
A: Its value is “did not affect”.

Q: And the inhibition at 50 µM ([16]; read-out: inhibition of Tiam-1/Rac1(G15A) interaction)?
A: The inhibition at 50 µM was 64%.

Q: With `Cc1cc(/C=c2/sc3nc4ccccc4n3c2=O)c(C)n1-c1ccccc1` [ITX3] as the compound, how does the effective concentration [17] read?
A: The effective concentration was 50 to 100 µM.

Q: With `O=C(C#Cc1ccccc1)c1cccc([N+](=O)[O-])c1` [MLS000532223] as the compound, how does the “effect on GTP binding to Rac” value [18] read?
A: Its value is “prevents GTP binding to Rac”.

Q: Which “effect on lamellopodia formation” value ([8]; 50 μM, MDA-MB-435) does the source give for `CCN(CC)CCCC(C)Nc1nc(C)cc(Nc2ccc3nc(C)cc(N)c3c2)n1` (stereo not shown) [NSC23766, reference compound] here?
A: Its value is “no significant effect”.

Q: And the IC50 [19]?
A: The IC50 was 50000 to 100000 nM.

Q: Which “concentration interfering with Rac-downstream effector interaction” value [20] does the source give for `O=c1cc(CN2CCOCC2)occ1OCCCCCSc1ccnc2cc(C(F)(F)F)ccc12` [EHT 1864] here?
A: The value was 10 to 50 µM.

Q: And the “effective concentration as Rac inhibitor” value [20]?
A: The value was 10 µM.
